Measured values: patent US20230303553A1, “CDK6/DYRK2 DUAL-TARGET INHIBITOR, AND PREPARATION METHOD THEREFOR AND USE THEREOF” (JIANGSU TASLY DIYI PHARMACEUTICAL CO., LTD., priority 2021, published 2023)
Where a name gives a salt, the structure may show the parent alone.

How the values were obtained:
[1] = biological target: DYRK2 kinase (Homo sapiens (Human), UniProt Q92630); assay: DYRK2 kinase activity, 33P-ATP / Woodtide substrate; type: biochemical
[2] = biological target: CDK6 kinase (Homo sapiens (Human), UniProt Q00534); assay: CDK6 kinase activity, Lance Ultra TR-FRET; type: biochemical
Sequence of CDK6 kinase (Q00534 whole entry): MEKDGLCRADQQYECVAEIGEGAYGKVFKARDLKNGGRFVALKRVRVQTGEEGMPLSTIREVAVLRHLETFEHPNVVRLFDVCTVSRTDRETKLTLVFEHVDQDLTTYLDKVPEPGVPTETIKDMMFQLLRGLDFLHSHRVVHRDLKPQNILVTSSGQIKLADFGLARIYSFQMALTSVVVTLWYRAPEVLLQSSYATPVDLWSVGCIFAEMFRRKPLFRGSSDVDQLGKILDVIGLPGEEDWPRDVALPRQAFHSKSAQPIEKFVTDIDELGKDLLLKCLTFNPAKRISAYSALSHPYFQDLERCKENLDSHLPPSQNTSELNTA
Sequence of CDK6 kinase (P24385 whole entry partner): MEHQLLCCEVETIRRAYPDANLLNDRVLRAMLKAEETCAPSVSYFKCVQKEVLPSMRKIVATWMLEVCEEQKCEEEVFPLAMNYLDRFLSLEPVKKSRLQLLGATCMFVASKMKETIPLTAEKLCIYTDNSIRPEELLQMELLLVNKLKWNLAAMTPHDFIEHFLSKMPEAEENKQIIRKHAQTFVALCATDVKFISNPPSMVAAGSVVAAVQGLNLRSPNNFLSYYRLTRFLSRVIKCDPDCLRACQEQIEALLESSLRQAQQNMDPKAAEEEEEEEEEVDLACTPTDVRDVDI

Sequence of DYRK2 kinase (Q92630 whole entry): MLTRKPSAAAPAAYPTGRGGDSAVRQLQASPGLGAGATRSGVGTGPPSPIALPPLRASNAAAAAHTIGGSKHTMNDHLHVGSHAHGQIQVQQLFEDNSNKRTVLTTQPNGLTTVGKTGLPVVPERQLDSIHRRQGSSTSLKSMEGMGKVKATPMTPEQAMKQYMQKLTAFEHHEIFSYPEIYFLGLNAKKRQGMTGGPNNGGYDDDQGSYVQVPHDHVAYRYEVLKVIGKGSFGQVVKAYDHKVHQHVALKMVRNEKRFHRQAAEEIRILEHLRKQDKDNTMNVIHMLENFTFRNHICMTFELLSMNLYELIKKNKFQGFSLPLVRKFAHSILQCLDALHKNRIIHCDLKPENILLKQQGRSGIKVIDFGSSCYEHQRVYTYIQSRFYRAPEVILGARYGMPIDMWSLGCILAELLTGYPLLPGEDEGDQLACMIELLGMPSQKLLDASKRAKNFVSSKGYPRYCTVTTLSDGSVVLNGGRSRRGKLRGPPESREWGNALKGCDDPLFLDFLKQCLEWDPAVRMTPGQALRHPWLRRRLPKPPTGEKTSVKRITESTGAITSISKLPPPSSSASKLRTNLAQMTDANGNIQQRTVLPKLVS

Compound | IC50 [1] [nM] | IC50 [2] [nM]
CC(C)N1CCN(C(=O)c2ccc(Nc3ncc(F)c(-c4ccc5nc(N(C)C)sc5c4)n3)nc2)CC1 [Example 39, (6-((4-(2-(dimethylamino)benzothiazole-6-yl)-5-fluoropyrimidine-2-yl)amino)pyridine-3-yl)(4-isopropylpiperazine-1-yl)ketone] | 16 | 57
CN(C)c1nc2ccc(-c3nc(Nc4ccc(CN5CCNCC5)cn4)ncc3F)cc2s1 [Example 33, 6-(5-fluoro-2-((5-(piperazine-1-ylmethyl)pyridine-2-yl)amino)pyrimidine-4-yl)-N,N-dimethylbenzothiazole-2-amine hydrochloride] | – | 59
CN(C)c1nc2ccc(-c3nc(Nc4ccc(N5CCNCC5)cn4)ncc3F)cc2s1 [Example 41, 6-(5-fluoro-2-((5-(piperazine-1-yl)pyridine-2-yl)amino)pyrimidine-4-yl)-N,N-dimethylbenzothiazole-2-amine hydrochloride] | – | 61
CN(C)c1nc2ccc(-c3nc(Nc4ccc(N5CCN(C(=O)OC(C)(C)C)CC5)cn4)ncc3F)cc2s1 [Example 40, tert-butyl 4-(6-((4-(2-(dimethylamino)benzothiazole-6-yl)-5-fluoropyrimidine-2-yl)amino)pyridine-3-yl)piperazine-1-carboxylate] | – | > 1000
CCN(CC)c1nc2ccc(-c3nc(Nc4ccc(CN5CCNCC5)cn4)ncc3F)cc2s1 [Example 45, N,N-diethyl-6-(5-fluoro-2-((5-(piperazine-1-ylmethyl)pyridine-2-yl)amino)pyrimidine-4-yl)benzothiazole-2-amine hydrochloride] | 290 | 45
Fc1cnc(Nc2ccc(CN3CCNCC3)cn2)nc1-c1ccc2ncsc2c1 [Example 4, 4-(benzothiazole-6-yl)-5-fluoro-N-(5-(piperazine-1-ylmethyl)pyridine-2-yl)pyrimidine-2-amine hydrochloride] | – | 268
CCN(CC)c1nc2ccc(-c3nc(Nc4ccc(CN5CCN(C(=O)OC(C)(C)C)CC5)cn4)ncc3F)cc2s1 [Example 44, tert-butyl 4-((6-((4-(2-(diethylamino)benzothiazole-6-yl)-5-fluoropyrimidine-2-yl)amino)pyridine-3-yl)methyl)piperazine-1-carboxylate] | – | > 1000
CCN(CC)c1nc2ccc(-c3nc(Nc4ccc(CN5CCN(C(C)C)CC5)cn4)ncc3F)cc2s1 [Example 50] | – | 31
CCN1CCN(Cc2ccc(Nc3ncc(F)c(-c4ccc5nc(N(C)C)sc5c4)n3)nc2)CC1 [Example 30, 6-(2-((5-((4-ethylpiperazine-1-yl)methyl)pyridine-2-yl)amino)-5-fluoropyrimidine-4-yl)-N,N-dimethylbenzothiazole-2-amine] | – | 254
CCN1CCN(Cc2ccc(Nc3ncc(F)c(-c4ccc5ncsc5c4)n3)nc2)CC1 [Example 2, 4-(benzothiazole-6-yl)-N-(5-((4-ethylpiperazine-1-yl)methyl)pyridine-2-yl)-5-fluoropyrimidine-2-amine] | – | 244
CCOC(=O)N1CCN(Cc2ccc(Nc3ncc(F)c(-c4ccc5ncsc5c4)n3)nc2)CC1 [Example 10, ethyl 4-((6-((4-(benzothiazole-6-yl)-5-fluoropyrimidine-2-yl)amino)pyridine-3-yl)methyl)piperazine-1-carboxylate] | – | 169
CC(C)(C)OC(=O)N1CCN(Cc2ccc(Nc3ncc(F)c(-c4ccc5ncsc5c4)n3)nc2)CC1 [Example 3, tert-butyl 4-((6-((4-(benzothiazole-6-yl)-5-fluoropyrimidine-2-yl)amino)pyridine-3-yl)methyl)piperazine-1-carboxylate] | – | 272
Cc1nc2ccc(-c3nc(Nc4ccc(C(=O)N5CCNCC5)cn4)ncc3F)cc2s1 [Example 17, (6-((5-fluoro-4-(2-methylbenzothiazole-6-yl)pyrimidine-2-yl)amino)pyridine-3-yl)(piperazine-1-yl)ketone hydrochloride] | 27 | 93
CN(C)c1nc2ccc(-c3nc(Nc4ccc(C(=O)N5CCNCC5)cn4)ncc3F)cc2s1 [Example 35, (6-((4-(2-(dimethylamino)benzothiazole-6-yl)-5-fluoropyrimidine-2-yl)amino)pyridine-3-yl)(piperazine-1-yl)ketone hydrochloride] | – | 41
Fc1cnc(Nc2ccc(N3CCNCC3)cn2)nc1-c1ccc2ncsc2c1 [Example 8, 4-(benzothiazole-6-yl)-5-fluoro-N-(5-(piperazine-1-yl)pyridine-2-yl)pyrimidine-2-amine hydrochloride] | 85 | 129
CCN(CC)c1nc2ccc(-c3nc(Nc4ccc(CN5CCN(S(C)(=O)=O)CC5)cn4)ncc3F)cc2s1 [Example 48, N,N-diethyl-6-(5-fluoro-2-((5-((4-(methanesulfonyl)piperazine-1-yl)methyl)pyridine-2-yl)amino)pyrimidine-4-yl)benzothiazole-2-amine] | – | > 10000
CCN1CCN(C(=O)c2ccc(Nc3ncc(F)c(-c4ccc5ncsc5c4)n3)nc2)CC1 [Example 1, (6-((4-(benzothiazole-6-yl)-5-fluoropyrimidine-2-yl)amino)pyridine-3-yl)(4-ethylpiperazine-1-yl)ketone] | – | 144
CCN(CC)c1nc2ccc(-c3nc(Nc4ccc(C(=O)N5CCN(C(C)C)CC5)cn4)ncc3F)cc2s1 [Example 51, (6-((4-(2-(diethylamino)benzothiazole-6-yl)-5-fluoropyrimidine-2-yl)amino)pyridine-3-yl)(4-isopropylpiperazine-1-yl)ketone] | – | 8
CCOC(=O)N1CCN(Cc2ccc(Nc3ncc(F)c(-c4ccc5nc(N(C)C)sc5c4)n3)nc2)CC1 [Example 38, ethyl 4-((6-((4-(2-(dimethylamino)benzothiazole-6-yl)-5-fluoropyrimidine-2-yl)amino)pyridine-3-yl)methyl)piperazine-1-carboxylate] | – | > 1000
CN(C)c1nc2ccc(-c3nc(Nc4ccc(CN5CCN(C(=O)OC(C)(C)C)CC5)cn4)ncc3F)cc2s1 [Example 32, tert-butyl 4-((6-((4-(2-(dimethylamino)benzothiazole-6-yl)-5-fluoropyrimidine-2-yl)amino)pyridine-3-yl)methyl)piperazine-1-carboxylate] | – | > 10000
CC(C)N1CCN(Cc2ccc(Nc3ncc(F)c(-c4ccc5nc(N(C)C)sc5c4)n3)nc2)CC1 [Example 36, 6-(5-fluoro-2-((5-((4-isopropylpiperazine-1-yl)methyl)pyridine-2-yl)amino)pyrimidine-4-yl)-N,N-dimethylbenzothiazole-2-amine] | – | 142
Cc1nc2ccc(-c3nc(Nc4ccc(C(=O)N5CCN(C(=O)OC(C)(C)C)CC5)cn4)ncc3F)cc2s1 [Example 16, tert-butyl 4-(6-((5-fluoro-4-(2-methylbenzothiazole-6-yl)pyrimidine-2-yl)amino)nicotinoyl)piperazine-1-carboxylate] | – | 86
CC(C)N1CCN(Cc2ccc(Nc3ncc(F)c(-c4ccc5ncsc5c4)n3)nc2)CC1 [Example 11, 4-(benzothiazole-6-yl)-5-fluoro-N-(5-((4-isopropylpiperazine-1-yl)methyl)pyridine-2-yl)pyrimidine-2-amine] | 263 | 175
CCOC(=O)N1CCN(Cc2ccc(Nc3ncc(F)c(-c4ccc5nc(N(CC)CC)sc5c4)n3)nc2)CC1 [Example 49, ethyl 4-((6-((4-(2-(diethylamino)benzothiazole-6-yl)-5-fluoropyrimidine-2-yl)amino)pyridine-3-yl)methyl)piperazine-1-carboxylate] | – | > 10000
CCN1CCN(Cc2ccc(Nc3ncc(F)c(-c4ccc5nc(N(CC)CC)sc5c4)n3)nc2)CC1 [Example 43] | 197 | 15
CN(C)c1nc2ccc(-c3nc(Nc4ccc(C(=O)N5CCN(C(=O)OC(C)(C)C)CC5)cn4)ncc3F)cc2s1 [Example 34, tert-butyl 4-(6-((4-(2-(dimethylamino)benzothiazole-6-yl)-5-fluoropyrimidine-2-yl)amino)nicotinoyl)piperazine-1-carboxylate] | – | > 10000
CC(C)(C)OC(=O)N1CCN(c2ccc(Nc3ncc(F)c(-c4ccc5ncsc5c4)n3)nc2)CC1 [Example 7, tert-butyl 4-(6-((4-(benzothiazole-6-yl)-5-fluoropyrimidine-2-yl)amino)pyridine-3-yl)piperazine-1-carboxylate] | – | > 10000
CN(C)c1nc2ccc(-c3nc(Nc4ccc(CN5CCN(S(C)(=O)=O)CC5)cn4)ncc3F)cc2s1 [Example 37, 6-(5-fluoro-2-((5-((4-(methanesulfonyl)piperazine-1-yl)methyl)pyridine-2-yl)amino)pyrimidine-4-yl)-N,N-dimethylbenzothiazole-2-amine] | – | > 10000
